For test [1], the target named is T1, LuxPQ (LuxQ in interplay with LuxP) (Vibrio harveyi, UniProt P54300).
T1 construct: full-length wild-type LuxQ with C-terminal His6 in inverted membrane vesicles of E. coli TKR2000 (pNKQ); read-out phosphorylation of purified His6-LuxU; with Autoinducer 2 sensor kinase/phosphatase LuxQ
Kind of test: inhibition of LuxU phosphorylation by [gamma-32P]ATP, membrane vesicles, SDS-PAGE autoradiography. In kind it is biochemical. The conditions noted are these: read-out: half-maximal inhibition.

A further test addresses LuxN (Vibrio campbellii, UniProt A7MRY4). As to the kind of experiment: biochemical. Conditions: read-out: % inhibition at 10 μM.

T1 sequence (P54302 whole entry): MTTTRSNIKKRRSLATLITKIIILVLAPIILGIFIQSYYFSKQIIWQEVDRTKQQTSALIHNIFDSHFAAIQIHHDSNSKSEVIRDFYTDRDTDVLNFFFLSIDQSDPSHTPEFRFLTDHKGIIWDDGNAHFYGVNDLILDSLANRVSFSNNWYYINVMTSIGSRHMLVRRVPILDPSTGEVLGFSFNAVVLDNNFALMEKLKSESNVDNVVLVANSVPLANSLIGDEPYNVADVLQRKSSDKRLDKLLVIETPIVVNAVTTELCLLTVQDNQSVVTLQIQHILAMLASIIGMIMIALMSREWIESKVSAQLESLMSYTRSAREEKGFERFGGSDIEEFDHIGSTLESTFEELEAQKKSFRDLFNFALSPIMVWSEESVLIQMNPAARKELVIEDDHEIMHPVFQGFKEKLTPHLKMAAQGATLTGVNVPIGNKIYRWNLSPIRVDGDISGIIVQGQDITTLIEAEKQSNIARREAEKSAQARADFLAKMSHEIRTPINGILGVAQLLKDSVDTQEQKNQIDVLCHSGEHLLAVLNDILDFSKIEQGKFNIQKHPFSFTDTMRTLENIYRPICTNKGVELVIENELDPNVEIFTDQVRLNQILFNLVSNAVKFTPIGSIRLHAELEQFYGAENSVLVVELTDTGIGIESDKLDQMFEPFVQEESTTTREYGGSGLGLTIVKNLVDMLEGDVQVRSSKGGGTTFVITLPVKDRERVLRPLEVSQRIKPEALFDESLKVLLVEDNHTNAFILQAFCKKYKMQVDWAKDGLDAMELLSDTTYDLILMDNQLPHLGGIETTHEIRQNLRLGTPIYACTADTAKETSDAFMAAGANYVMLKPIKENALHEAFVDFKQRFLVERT
T1 sequence (P54300 24-365): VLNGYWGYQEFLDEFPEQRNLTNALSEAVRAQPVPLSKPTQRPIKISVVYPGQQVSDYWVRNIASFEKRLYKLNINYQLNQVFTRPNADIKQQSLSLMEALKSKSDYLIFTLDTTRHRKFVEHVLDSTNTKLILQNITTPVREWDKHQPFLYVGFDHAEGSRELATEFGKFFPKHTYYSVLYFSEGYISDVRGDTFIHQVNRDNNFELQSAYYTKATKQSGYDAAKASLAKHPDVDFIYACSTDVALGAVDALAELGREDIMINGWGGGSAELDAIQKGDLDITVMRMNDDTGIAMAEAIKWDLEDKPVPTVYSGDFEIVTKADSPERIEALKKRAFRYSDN
Chain of LuxN (A7MRY4 whole entry): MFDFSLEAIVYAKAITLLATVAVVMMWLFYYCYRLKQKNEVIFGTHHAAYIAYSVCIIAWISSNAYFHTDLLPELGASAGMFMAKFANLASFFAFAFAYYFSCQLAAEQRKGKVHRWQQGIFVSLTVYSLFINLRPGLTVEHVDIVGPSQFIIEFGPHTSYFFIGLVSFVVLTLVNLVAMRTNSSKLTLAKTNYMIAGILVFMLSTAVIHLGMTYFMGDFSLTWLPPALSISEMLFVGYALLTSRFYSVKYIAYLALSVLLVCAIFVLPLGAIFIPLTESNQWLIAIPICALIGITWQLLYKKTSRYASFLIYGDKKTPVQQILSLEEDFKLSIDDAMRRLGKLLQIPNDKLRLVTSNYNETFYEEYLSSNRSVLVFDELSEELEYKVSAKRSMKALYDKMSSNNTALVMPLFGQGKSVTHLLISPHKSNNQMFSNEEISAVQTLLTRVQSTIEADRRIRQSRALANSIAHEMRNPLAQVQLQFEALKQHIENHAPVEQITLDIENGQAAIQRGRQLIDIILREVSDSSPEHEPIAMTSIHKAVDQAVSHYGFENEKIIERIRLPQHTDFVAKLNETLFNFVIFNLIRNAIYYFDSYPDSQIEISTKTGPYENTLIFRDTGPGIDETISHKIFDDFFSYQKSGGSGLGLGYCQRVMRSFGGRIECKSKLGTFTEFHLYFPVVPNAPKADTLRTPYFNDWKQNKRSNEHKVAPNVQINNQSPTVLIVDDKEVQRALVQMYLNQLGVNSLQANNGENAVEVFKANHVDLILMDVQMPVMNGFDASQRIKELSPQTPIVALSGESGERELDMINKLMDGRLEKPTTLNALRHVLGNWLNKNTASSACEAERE

In the case of `C[C@]12OC[C@H](O)[C@@]1(O)O[B-](O)(O)O2` [AI-2], the IC50 in test [1] worked out at 5 µM.

Usually inhibition stands for the drop in the measured response relative to a control, in per cent. Turning to `C[C@@H](O)CC(=O)N[C@H]1CCOC1=O` [HAI-1, N-(3-hydroxybutyryl)-homoserine lactone], the inhibition at 10 µM on LuxN was 57%.
